B1: BMP4: human recombinant BMP4 (manufactured by R&D), BMP signal transduction pathway activating substance (protein, UniProt P12644 293-408, looked up)
Bone morphogenetic protein 4: SPKHHSQRARKKNKNCRRHSLYVDFSDVGWNDWIVAPPGYQAFYCHGDCPFPLADHLNSTNHAIVQTLVNSVNSSIPKACCVPTELSAISMLYLDEYDKVVLKNYQEMVVEGCGCR

Assays:
Type in all cases: cell-based
[1] = test system: human iPS cells (1231A3 strain); assay: Bright field observation of cell aggregates in suspension culture (aggregate shape, neuroepithelium / neural tissue formation); conditions: for aggregate growth and neuroepithelium formation (bright field): Example 7, SAG 30 nM, PMA 0.2 μM or human recombinant Shh 300 ng/ml day 0, BMP4 1.5 nM day 3
Protocol: The above subconfluent human iPS cells were treated with a cell dispersion solution by using TrypLE Select (Life Technologies), and further dispersed into single cells by a pipetting operation. Thereafter, the above human iPS cells dispersed into single cells were suspended in 100 μl of a serum-free medium in a non-cell-adhesive 96 well culture plate (PrimeSurface 96V-bottom plate, SUMITOMO BAKELITE) at 1.2×10^4 cells per well, and subjected to suspension culturing at 37° C., 5% CO2. As a serum-free medium (gfCDM+KSR) therefor, a 1:1 mixture of F-12 medium and IMDM medium supplemented with 10% KSR, 450 μM 1-monothioglycerol, 1× Chemically defined lipid concentrate was used. At the start of the suspension culturing (on day 0 after the start of suspension culturing, step 2 start), Y27632 (final concentration 20 μM) was added to the above serum-free medium. By day 2 after the start of suspension culturing, cell aggregates were formed (step 2 completed, and step 3 start). On day 3 after the start of suspension culturing, a serum-free medium (50 μl) free of Y27632 was added.
On day 6 after the start of suspension culturing, a half amount of the medium was changed with a medium free of Y27632 and containing or not containing human recombinant BMP4 (manufactured by R&D) to adjust the final concentration of exogenous human recombinant BMP4 to 1.5 nM (55 ng/ml, FIG. 1B) or to give a medium free of exogenous human recombinant BMP4 (FIG. 1A). As the half-medium exchange operation, a half volume of the medium in the culture vessel, namely 75 μl, was discarded, the above fresh serum-free medium (75 μl) was added to adjust the total medium amount to 150 μl. Thereafter, a half amount of the medium was changed with the above serum-free medium free of Y27632 and human recombinant BMP4 once per 2-4 days. […]
The thus-prepared subconfluent human iPS cells were treated with a cell dispersion solution by using TrypLE Select (Life Technologies), and further dispersed into single cells by a pipetting operation. Thereafter, the above human iPS cells dispersed into single cells were suspended in 100 μl of a serum-free medium in a non-cell-adhesive 96 well culture plate (PrimeSurface 96V-bottom plate, SUMITOMO BAKELITE) at 1.2×10^4 cells per well, and subjected to suspension culturing at 37° C., 5% CO2. As a serum-free medium (gfCDM+KSR) therefor, a 1:1 mixture of F-12 medium and IMDM medium supplemented with 10% KSR, 450 μM 1-monothioglycerol, 1× Chemically defined lipid concentrate was used. […] By day 2 after the start of suspension culturing, cell aggregates were formed (step 2 completed, step 3 start). On day 3 after the start of suspension culturing, a serum-free medium (50 μl) free of Y27632 and SAG was added. On day 6 after the start of suspension culturing, a half amount of the medium was changed with a medium free of Y27632 and containing or not containing human recombinant BMP4 (manufactured by R&D) to adjust the final concentration of exogenous human recombinant BMP4 to 1.5 nM (55 ng/ml, FIG. 1D) or to give a medium free of exogenous human recombinant BMP4 (FIG. 1C). As the half-medium exchange operation, a half volume of the medium in the culture vessel, namely 75 μl, was discarded, the above fresh serum-free medium (75 μl) was added to adjust the total medium amount to 150 μl. Thereafter, a half amount of the medium was changed with the above serum-free medium free of Y27632, SAG and human recombinant BMP4 once per 2-4 days. […]
The thus-prepared subconfluent human iPS cells were treated with the cell dispersion solution by using TrypLE Select (Life Technologies), further dispersed into single cells by pipetting operation, and the above human iPS cells dispersed into single cells were suspended in 100 μl of a serum-free medium at 1.2×10^4 cells per well of a non-cell-adhesive 96-well culture plate (PrimeSurface 96V-bottom plate, manufactured by SUMITOMO BAKELITE). Thereafter, the cells were subjected to suspension culturing at 37° C., 5% CO2. […]

[2] = test system: human iPS cells (201B7 strain); assay: Bright field observation of cell aggregates in suspension culture (neuroepithelium formation); conditions: Example 6; StemFit; SAG 30 nM, Purmorphamine 0.2 μM or human recombinant Shh 50 ng/ml day 0; BMP4 1.5 nM day 3; day 18
Protocol: The thus-prepared subconfluent human iPS cells were treated with the cell dispersion solution by using TrypLE Select (manufactured by Life Technologies), further dispersed into single cells by pipetting operation, and the above human iPS cells dispersed into single cells were suspended in 100 μl of a serum-free medium at 1.2×10^4 cells per well of a non-cell-adhesive 96-well culture plate (PrimeSurface 96V-bottom plate, SUMITOMO BAKELITE). Thereafter, the cells were subjected to suspension culturing at 37° C., 5% CO2. As the serum-free medium (gfCDM+KSR) therefor, a serum-free medium which is a 1:1 mixture of F-12 medium and IMDM medium supplemented with 10% KSR, 450 μM 1-monothioglycerol, 1× Chemically defined lipid concentrate was used. At the time of the start of suspension culturing (day 0 after the start of suspension culturing, start of step 2), a serum-free medium supplemented with SAG (final concentration […]) as a Shh signal transduction pathway activating substance and Y27632 (20 μM) was used (FIG. 5A-D). By day 2 after the start of suspension culturing, cell aggregates were formed. On day 3 after the start of suspension culturing, a serum-free medium (50 μl) free of Y27632 and SAG was added. […] The thus-prepared cell aggregates were subjected to bright field observation under an inverted microscope (BIOREVO manufactured by KEYENCE) on day 18 after the start of suspension culturing.
The thus-prepared subconfluent human iPS cells were treated with the cell dispersion solution by using TrypLE Select (manufactured by Life Technologies), further dispersed into single cells by pipetting operation, and the above human iPS cells dispersed into single cells were suspended in 100 μl of a serum-free medium at 1.0×10^4 cells per well of a non-cell-adhesive 96-well culture plate (SUMILON SPHEROID V-bottom plate PrimeSurface 96V-bottom plate, SUMITOMO BAKELITE). Thereafter, the cells were subjected to suspension culturing at 37° C., 5% CO2. As the serum-free medium (gfCDM+KSR) therefor, a serum-free medium which is a 1:1 mixture of F-12 medium and IMDM medium supplemented with 10% KSR, 450 μM 1-monothioglycerol, 1× Chemically defined lipid concentrate was used. At the time of the start of suspension culturing (day 0 after the start of suspension culturing, start of step 2), the above serum-free medium supplemented with Y27632 (final concentration 20 μM) and further supplemented with SAG (final concentration 30 nM), Purmorphamine (manufactured by Wako, final concentration 0.2 μM), or human recombinant Shh (manufactured by R&D, Recombinant N-Terminus, final concentration 50 ng/ml) as a Shh signal transduction pathway activating substance was used (FIG. 8). On day 2 after the start of suspension culturing, a cell aggregates were formed. […]

[3] = test system: human iPS cells (1231A3 strain); assay: Immunostaining of aggregate cryosections for retinal tissue markers Chx10 and Rx; conditions: Example 7, BMP4 1.5 nM day 3, day 18
Description: The above cell aggregates on day 19 after the start of suspension culturing were each fixed with 4% para-formaldehyde to give cryosections. These cryosections were immunostained for Chx10 (anti-Chx10 antibody, manufactured by Exalpha, sheep), which is one of the retinal tissue markers, or Rx (anti-Rx antibody, manufactured by TAKARA, guinea pig), which is one of the retinal tissue markers. In judgment of whether the above marker is positive in the immunostaining analysis, a fluorescence intensity which is not less than 2 times higher than that of the background was taken as positive.
The thus-prepared cell aggregates on day 18 after the start of suspension culturing, which were produced by adding SAG in step 2 from feeder-free iPS cells as a starting material, were fixed with 4% para-formaldehyde to produce frozen sections. These frozen sections were immunostained for Chx10 (anti-Chx10 antibody, Exalpha, sheep), which is one of the retinal tissue markers, or Rx (anti-Rx antibody, manufactured by TAKARA, guinea pig), which is one of the retinal tissue markers. These immunostained sections were observed under an inverted fluorescence microscope.
The cell aggregates on day 18 after the start of suspension culturing were fixed with 4% para-formaldehyde to produce frozen sections. These frozen sections were immunostained for Chx10 (anti-Chx10 antibody, Exalpha, sheep), which is one of the retinal tissue markers.

[4] = Comparative Example 1, StemFit, no SAG, BMP4 1.5 nM on day 6, observed day 19
[5] = Example 2 Condition 2, Essential 8, no SAG, BMP4 1.5 nM day 6, day 18

Row | Molecule | aggregate growth and neuroepithelium formation (bright field) ([1]; StemFit, day 18) | neuroepithelium formation (bright field) [2] | proportion of Chx10-positive cells in the total cells ([3]; PMA 0.2 μM day 0) | presence of Chx10-positive cells in the cell aggregate ([3]; SAG 30 nM or Shh 300 ng/ml day 0) | cell aggregates collapsed [1, 4] | neural tissue formation efficiency [1, 4] | cell aggregates collapsed [1, 5] | formation efficiency of neural tissue [1, 5]
1 | c1ccc2c(Oc3nc(Nc4ccc(N5CCOCC5)cc4)c4ncn(C5CCCCC5)c4n3)cccc2c1 [PMA, 9-cyclohexyl-N-[4-(4-morpholinyl)phenyl]-2-(l-naphthalenyloxy)-9H-purin-6-amine] | cell aggregates grew and neuroepithelium was formed | neuroepithelium was formed | not more than 60% | – | – | – | – | –
2 | Shh: human recombinant Shh (manufactured by R&D, Recombinant N-Terminus), Sonic hedgehog signal transduction pathway activating substance | cell aggregates grew and neuroepithelium was formed | neuroepithelium was formed | – | contained Chx10-positive cells | – | – | – | –
3 | B1 | – | – | – | – | not less than 90% | poor | not less than 80% | poor
